Measured values from ChEMBL document CHEMBL4312011, “Synthesis and biological evaluation of triterpenoid thiazoles derived from betulonic acid, dihydrobetulonic acid, and ursonic acid” (Eur J Med Chem, 2020).
Values after ≈ are worked out from the molar mass of the structure shown. Active and inactive are the calls of the source. No cut-off for these calls is given here.

Tests used:
[1] = Chemical stability of compound in PBS buffer assessed as parent compound remaining at 2 uM at pH 7.4 and 37 degC incubated for 15 mins by RF-MS analysis; type: physicochemical; conditions: read-out: Stability
[2] = Solubility of compound in 0.5 % DMSO in water by HPLC-MS analysis; type: physicochemical
[3] = Solubility of compound in 10 % DMSO in water by HPLC-MS analysis; type: physicochemical
[4] = test system: CCRF-CEM; assay: Induction of apoptosis in human CCRF-CEM cells assessed as increase in BAX expression at 5 times IC50 concentration measured after 24 hrs by Western blot analysis; type: functional, cell-based
[5] = test system: MRC5; assay: Cytotoxicity against human MRC5 cells incubated for 72 hrs by MTS assay; type: cell-based; conditions: MRC5, 72 h
[6] = test system: U2OS; assay: Cytotoxicity against human U2OS cells incubated for 72 hrs by MTS assay; type: functional, cell-based
[7] = test system: HCT-116; assay: Cytotoxicity against p53 knockout human HCT116 cells incubated for 72 hrs by MTS assay; type: functional, cell-based; conditions: HCT-116, 72 h
[8] = Stability in human plasma assessed as parent compound remaining at 2 uM incubated for 15 mins by RF-MS analysis; type: ADME, cell-free; conditions: read-out: Stability
[9] = Cytotoxicity against human CEM-DNR-bulk cells incubated for 72 hrs by MTS assay; type: functional, cell-based
[10] = Microsomal stability in human liver microsomes assessed as parent compound remaining at 2 uM incubated for 60 mins by RF-MS analysis; type: ADME, Microsome; conditions: read-out: Stability
[11] = test system: CCRF-CEM; assay: Induction of apoptosis in human CCRF-CEM cells assessed as viable cells at 5 times IC50 concentration measured after 24 hrs by AnnexinV-FITC/propidium iodide staining based flow cytometry analysis (reference value: 97 %); type: functional
[12] = test system: CCRF-CEM; assay: Induction of apoptosis in human CCRF-CEM cells assessed as decrease in Bcl-2 expression at 5 times IC50 concentration measured after 24 hrs by Western blot analysis; type: functional, cell-based
[13] = test system: HCT-116; assay: Cytotoxicity against human HCT116 cells incubated for 72 hrs by MTS assay; type: functional, cell-based; conditions: HCT-116, 72 h
[14] = Stability in human plasma assessed as parent compound remaining at 2 uM incubated for 120 mins by RF-MS analysis; type: ADME, cell-free; conditions: read-out: Stability
[15] = test system: A549; assay: Cytotoxicity against human A549 cells incubated for 72 hrs by MTS assay; type: functional, cell-based; conditions: A549, 72 h
[16] = Microsomal stability in human liver microsomes assessed as parent compound remaining at 2 uM incubated for 30 mins by RF-MS analysis; type: ADME, Microsome; conditions: read-out: Stability
[17] = test system: CCRF-CEM; assay: Induction of apoptosis in human CCRF-CEM cells assessed as activation of caspase 7 at 5 times IC50 concentration measured after 24 hrs by Western blot analysis; type: functional, cell-based
[18] = Protein binding in human plasma at 10 uM measured after 4 hrs by rapid equilibrium dialysis; type: ADME, cell-free; conditions: read-out: PPB (converted)
[19] = test system: CCRF-CEM; assay: Induction of apoptosis in human CCRF-CEM cells assessed as activation of procaspase 8 at 5 times IC50 concentration measured after 24 hrs by Western blot analysis; type: functional, cell-based
[20] = Solubility of compound in 5 % DMSO in water by HPLC-MS analysis; type: physicochemical
[21] = Cytotoxicity against human K562-TAX cells incubated for 72 hrs by MTS assay; type: functional, cell-based
[22] = test system: CCRF-CEM; assay: Cell cycle arrest in human CCRF-CEM cells assessed as decrease in proportion of cells in S phase at 5 times IC50 measured after 24 hrs by propidium iodide/RNase staining based flow cytometry analysis; type: functional
[23] = test system: BJ; assay: Cytotoxicity against human BJ cells incubated for 72 hrs by MTS assay; type: cell-based
[24] = test system: CCRF-CEM; assay: Induction of apoptosis in human CCRF-CEM cells assessed as late apoptotic cells at 5 times IC50 concentration measured after 24 hrs by AnnexinV-FITC/propidium iodide staining based flow cytometry analysis (reference value: 0.1 %); type: functional
[25] = test system: CCRF-CEM; assay: Induction of apoptosis in human CCRF-CEM cells assessed as activation of PARP cleavage at 5 times IC50 concentration measured after 24 hrs by Western blot analysis; type: functional, cell-based
[26] = Stability in human plasma assessed as parent compound remaining at 2 uM incubated for 60 mins by RF-MS analysis; type: ADME, cell-free; conditions: read-out: Stability
[27] = Chemical stability of compound in PBS buffer assessed as parent compound remaining at 2 uM at pH 7.4 and 37 degC incubated for 60 mins by RF-MS analysis; type: physicochemical; conditions: read-out: Stability
[28] = test system: CCRF-CEM; assay: Induction of mitochondrial membrane depolarization in human CCRF-CEM cells at 5 times IC50 measured after 24 hrs by JC-1 staining based flow cytometry analysis (reference value: 8.4 %); type: functional
[29] = Microsomal stability in human liver microsomes assessed as parent compound remaining at 2 uM incubated for 15 mins by RF-MS analysis; type: ADME, Microsome; conditions: read-out: Stability
[30] = Stability in human plasma assessed as parent compound remaining at 2 uM incubated for 30 mins by RF-MS analysis; type: ADME, cell-free; conditions: read-out: Stability
[31] = test system: CCRF-CEM; assay: Induction of apoptosis in human CCRF-CEM cells assessed as necrotic cells at 5 times IC50 concentration measured after 24 hrs by AnnexinV-FITC/propidium iodide staining based flow cytometry analysis (reference value: 0.1 %); type: functional
[32] = test system: CCRF-CEM; assay: Induction of apoptosis in human CCRF-CEM cells assessed as activation of caspase 3 at 5 times IC50 concentration measured after 24 hrs by Western blot analysis; type: functional, cell-based
[33] = Chemical stability of compound in PBS buffer assessed as parent compound remaining at 2 uM at pH 7.4 and 37 degC incubated for 120 mins by RF-MS analysis; type: physicochemical; conditions: read-out: Stability
[34] = test system: CCRF-CEM; assay: Cytotoxicity against human CCRF-CEM cells incubated for 72 hrs by MTS assay; type: functional, cell-based
[35] = Chemical stability of compound in PBS buffer assessed as parent compound remaining at 2 uM at pH 7.4 and 37 degC incubated for 30 mins by RF-MS analysis; type: physicochemical; conditions: read-out: Stability
[36] = test system: CCRF-CEM; assay: Induction of apoptosis in human CCRF-CEM cells assessed as early apoptotic cells at 5 times IC50 concentration measured after 24 hrs by AnnexinV-FITC/propidium iodide staining based flow cytometry analysis (reference value: 2.8 %); type: functional
[37] = Permeability of compound in PBS buffer assessed as permeability coefficient at pH 7.4 incubated for 18 hrs by PAMPA based RF-MS analysis; type: ADME; conditions: pH 7.4, 18 h
[38] = test system: CCRF-CEM; assay: Induction of apoptosis in human CCRF-CEM cells assessed as increase in caspase 3/7 activity using Ac-DEVD-AMC as substrate at 5 times IC50 concentration measured after 24 hrs by fluorescence assay; type: functional, cell-based
[39] = test system: K562; assay: Cytotoxicity against human K562 cells incubated for 72 hrs by MTS assay; type: functional, cell-based; conditions: K562, 72 h
[40] = test system: CCRF-CEM; assay: Cell cycle arrest in human CCRF-CEM cells assessed as increase in G2/M phase accumulation at 5 times IC50 measured after 24 hrs by propidium iodide/RNase staining based flow cytometry analysis; type: functional

Structure (SMILES) | remaining at 0.25 h, 2 µM [1] [%] | IC50 [5] [µM] | IC50 [6] [µM] | IC50 [7] [µM] | remaining at 0.25 h, 2 µM [8] [%] | IC50 [9] [µM] | remaining at 1 h, 2 µM [10] [%] | IC50 [13] [µM] | remaining at 2 h, 2 µM [14] [%] | IC50 [15] [µM] | remaining at 0.5 h, 2 µM [16] [%] | IC50 [21] [µM] | IC50 [23] [µM] | remaining at 1 h, 2 µM [26] [%] | remaining at 1 h, 2 µM [27] [%] | remaining at 0.25 h, 2 µM [29] [%] | remaining at 0.5 h, 2 µM [30] [%] | remaining at 2 h, 2 µM [33] [%] | IC50 [34] [µM] | remaining at 0.5 h, 2 µM [35] [%] | other results
C=C(C)[C@@H]1CC[C@]2(C(=O)O)CC[C@]3(C)[C@H](CC[C@@H]4[C@@]5(C)Cc6sc(N)nc6C(C)(C)[C@@H]5CC[C@]43C)[C@@H]12 | 99.5 | > 50 | 48 | 48.3 | 99.5 | 25.6 | 25.8 | 36.5 | 97.7 | 38.4 | 26 | 17.4 | > 50 | 97.7 | 90.8 | 31 | 99.2 | 86.9 | 2.4 | 91.3 | solubility [2]: 26 µM (≈ 13.3 µg/mL); solubility [3]: 89 µM (≈ 45.5 µg/mL); Activity [4]: Active; Activity [11]: 76.9%; Activity [12]: Active; Activity [17]: Active; fraction unbound at 4 h, 10 µM [18]: 0.042; Activity [19]: Active; solubility [20]: 45 µM (≈ 23 µg/mL); Activity [22]: Active; Activity [24]: 2.1%; Activity [25]: Active; Activity [28]: 62.2%; Activity [31]: 0.8%; Activity [32]: Active; Activity [36]: 20.2%; log(permeability) [37]: -5.34; Activity [38]: Active; IC50 [39]: > 50 µM; Activity [40]: Active
C=C(C)[C@@H]1CC[C@]2(C(=O)O)CC[C@]3(C)[C@H](CC[C@@H]4[C@@]5(C)CC(SC#N)C(=O)C(C)(C)[C@@H]5CC[C@]43C)[C@@H]12 (some centres not stated) | 99.9 | 18.7 | 20.2 | 11.9 | 99 | 6.8 | 56.8 | 3.3 | 7.6 | 21.2 | 86.4 | 16.6 | 19.8 | 35.7 | 54.2 | 90.1 | 75.9 | 69.8 | 2.4 | 67.5 | IC50 [39]: 28.5 µM
CC(C)[C@@H]1CC[C@]2(C(=O)O)CC[C@]3(C)[C@H](CC[C@@H]4[C@@]5(C)CC(SC#N)C(=O)C(C)(C)[C@@H]5CC[C@]43C)[C@@H]12 (some centres not stated) | 99.5 | 4.6 | 15.1 | 3.4 | 99.5 | 14.5 | 1.6 | 3.5 | 14 | 12.5 | 35.5 | 5.4 | 5.8 | 56.8 | 90.6 | 62.9 | 94.6 | 69.8 | 0.9 | 99.4 | IC50 [39]: 3.4 µM
